pIC50: −log10 of the molar value. Read-outs that look alike come from different tables or passages of the source.
Assays:
PI3K-gamma = PI3K-gamma (Homo sapiens, UniProt P48736); assay: PI3K-gamma fluorescence polarization assay; format: biochemical; details: PI3Kγ Avg. IC50
Summary of the method: (§1)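 Inhibition is derived from a polarization signal: after a 1 h, 25° C kinase step (25 μM ATP, 2.5 μM diC8-PIP2, pH 7), EDTA stops the reaction and the GRP1 PH domain/TMR-IP4 pair reports lipid product.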

human TOR = target: T1, human TOR (Homo sapiens, UniProt P42345); assay: mTOR enzyme assay (DELFIA, His6-S6K substrate); format: biochemical; details: read-out: mTOR Kinase Avg. IC50
T1 construct: FLAG

PI3K-alpha = PI3K-alpha (Homo sapiens, UniProt P42336); assay: PI3K-alpha fluorescence polarization assay; format: biochemical; details: read-out: PI3Kα Avg. IC50
Sequence of PI3K-alpha (P42336 whole entry, species assumed): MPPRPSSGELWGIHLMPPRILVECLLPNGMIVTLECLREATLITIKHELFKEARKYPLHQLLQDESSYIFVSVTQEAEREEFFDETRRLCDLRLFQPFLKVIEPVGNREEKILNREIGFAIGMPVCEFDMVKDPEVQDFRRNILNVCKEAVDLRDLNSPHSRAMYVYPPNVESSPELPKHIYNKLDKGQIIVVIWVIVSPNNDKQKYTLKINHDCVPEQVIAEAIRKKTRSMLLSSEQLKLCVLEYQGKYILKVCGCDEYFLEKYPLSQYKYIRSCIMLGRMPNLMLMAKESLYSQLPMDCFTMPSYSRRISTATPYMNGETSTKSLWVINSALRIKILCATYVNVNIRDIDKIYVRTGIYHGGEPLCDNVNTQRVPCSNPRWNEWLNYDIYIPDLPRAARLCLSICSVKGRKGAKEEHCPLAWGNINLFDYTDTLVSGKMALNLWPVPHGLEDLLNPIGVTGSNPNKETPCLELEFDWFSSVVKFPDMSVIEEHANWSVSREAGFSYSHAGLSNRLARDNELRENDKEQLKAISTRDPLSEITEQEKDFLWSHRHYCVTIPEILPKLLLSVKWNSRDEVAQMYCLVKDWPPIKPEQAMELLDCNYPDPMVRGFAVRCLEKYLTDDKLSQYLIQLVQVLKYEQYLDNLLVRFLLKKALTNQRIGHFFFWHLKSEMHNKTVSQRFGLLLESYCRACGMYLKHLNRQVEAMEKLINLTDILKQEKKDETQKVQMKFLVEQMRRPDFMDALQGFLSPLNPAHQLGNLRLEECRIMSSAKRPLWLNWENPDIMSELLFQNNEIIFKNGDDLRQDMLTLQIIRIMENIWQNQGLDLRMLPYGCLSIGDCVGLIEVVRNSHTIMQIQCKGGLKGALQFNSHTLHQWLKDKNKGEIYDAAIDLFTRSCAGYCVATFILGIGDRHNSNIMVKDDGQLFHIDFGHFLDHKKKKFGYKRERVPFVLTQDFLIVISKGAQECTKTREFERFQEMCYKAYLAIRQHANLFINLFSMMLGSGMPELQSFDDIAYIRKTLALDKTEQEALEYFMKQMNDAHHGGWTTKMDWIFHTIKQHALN
Sequence of PI3K-alpha (P27986 whole entry partner, species assumed): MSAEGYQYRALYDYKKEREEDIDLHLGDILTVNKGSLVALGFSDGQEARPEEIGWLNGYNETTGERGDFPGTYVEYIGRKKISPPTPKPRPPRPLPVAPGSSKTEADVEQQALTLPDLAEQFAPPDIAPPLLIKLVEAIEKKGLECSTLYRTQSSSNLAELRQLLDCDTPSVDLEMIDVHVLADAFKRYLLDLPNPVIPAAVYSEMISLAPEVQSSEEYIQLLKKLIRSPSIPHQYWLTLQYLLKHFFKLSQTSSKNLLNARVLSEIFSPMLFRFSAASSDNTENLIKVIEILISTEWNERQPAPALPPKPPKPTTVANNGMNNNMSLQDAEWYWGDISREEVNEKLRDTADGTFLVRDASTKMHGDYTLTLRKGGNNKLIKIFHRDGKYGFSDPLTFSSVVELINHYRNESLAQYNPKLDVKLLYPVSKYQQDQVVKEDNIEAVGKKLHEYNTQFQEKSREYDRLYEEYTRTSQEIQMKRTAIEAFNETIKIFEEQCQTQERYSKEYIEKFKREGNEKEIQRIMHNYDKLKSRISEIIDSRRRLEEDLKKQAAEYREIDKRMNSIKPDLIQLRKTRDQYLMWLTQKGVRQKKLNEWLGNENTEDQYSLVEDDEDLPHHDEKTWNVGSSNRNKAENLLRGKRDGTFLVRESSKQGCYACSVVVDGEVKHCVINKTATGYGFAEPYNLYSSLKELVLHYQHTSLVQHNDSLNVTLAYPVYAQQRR

PI3K-beta = PI3K-beta (Homo sapiens, UniProt P42338); assay: PI3K-beta fluorescence polarization assay; format: biochemical; details: read-out: PI3Kβ Avg. IC50
Sequence of PI3K-beta (P42338 whole entry, species assumed): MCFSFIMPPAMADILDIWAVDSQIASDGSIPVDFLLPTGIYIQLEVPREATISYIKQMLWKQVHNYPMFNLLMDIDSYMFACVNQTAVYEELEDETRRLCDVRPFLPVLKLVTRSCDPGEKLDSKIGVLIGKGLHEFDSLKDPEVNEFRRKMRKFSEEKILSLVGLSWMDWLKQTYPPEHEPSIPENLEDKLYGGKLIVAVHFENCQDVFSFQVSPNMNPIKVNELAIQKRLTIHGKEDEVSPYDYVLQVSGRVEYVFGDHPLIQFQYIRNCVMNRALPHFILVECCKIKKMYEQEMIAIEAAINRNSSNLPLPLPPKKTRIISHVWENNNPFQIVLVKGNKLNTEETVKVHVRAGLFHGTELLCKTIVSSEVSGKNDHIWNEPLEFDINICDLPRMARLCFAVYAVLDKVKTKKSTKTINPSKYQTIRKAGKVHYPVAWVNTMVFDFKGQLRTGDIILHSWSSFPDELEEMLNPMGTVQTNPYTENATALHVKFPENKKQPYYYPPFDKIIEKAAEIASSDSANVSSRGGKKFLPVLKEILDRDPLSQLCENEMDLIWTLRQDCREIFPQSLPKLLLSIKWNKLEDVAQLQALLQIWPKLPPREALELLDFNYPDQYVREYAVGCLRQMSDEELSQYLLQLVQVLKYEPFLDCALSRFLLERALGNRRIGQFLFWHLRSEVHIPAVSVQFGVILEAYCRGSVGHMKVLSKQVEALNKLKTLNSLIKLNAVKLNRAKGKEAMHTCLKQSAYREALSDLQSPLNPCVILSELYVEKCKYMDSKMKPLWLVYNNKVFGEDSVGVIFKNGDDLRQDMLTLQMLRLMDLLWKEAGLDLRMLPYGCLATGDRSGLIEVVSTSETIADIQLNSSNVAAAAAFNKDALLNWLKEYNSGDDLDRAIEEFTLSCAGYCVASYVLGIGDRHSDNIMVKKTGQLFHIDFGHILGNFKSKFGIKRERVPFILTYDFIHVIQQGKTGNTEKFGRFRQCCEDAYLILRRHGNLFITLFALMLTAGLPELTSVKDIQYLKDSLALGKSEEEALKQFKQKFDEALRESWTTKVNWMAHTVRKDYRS
Sequence of PI3K-beta (P27986 whole entry partner, species assumed): as the sequence (P27986 whole entry partner, species assumed) above
Summary of the method: as §1

PI3K-delta = PI3K-delta (Homo sapiens, UniProt O00329); assay: PI3K-delta fluorescence polarization assay; format: biochemical; details: read-out: PI3Kδ Avg. IC50
Sequence of PI3K-delta (O00329 whole entry, species assumed): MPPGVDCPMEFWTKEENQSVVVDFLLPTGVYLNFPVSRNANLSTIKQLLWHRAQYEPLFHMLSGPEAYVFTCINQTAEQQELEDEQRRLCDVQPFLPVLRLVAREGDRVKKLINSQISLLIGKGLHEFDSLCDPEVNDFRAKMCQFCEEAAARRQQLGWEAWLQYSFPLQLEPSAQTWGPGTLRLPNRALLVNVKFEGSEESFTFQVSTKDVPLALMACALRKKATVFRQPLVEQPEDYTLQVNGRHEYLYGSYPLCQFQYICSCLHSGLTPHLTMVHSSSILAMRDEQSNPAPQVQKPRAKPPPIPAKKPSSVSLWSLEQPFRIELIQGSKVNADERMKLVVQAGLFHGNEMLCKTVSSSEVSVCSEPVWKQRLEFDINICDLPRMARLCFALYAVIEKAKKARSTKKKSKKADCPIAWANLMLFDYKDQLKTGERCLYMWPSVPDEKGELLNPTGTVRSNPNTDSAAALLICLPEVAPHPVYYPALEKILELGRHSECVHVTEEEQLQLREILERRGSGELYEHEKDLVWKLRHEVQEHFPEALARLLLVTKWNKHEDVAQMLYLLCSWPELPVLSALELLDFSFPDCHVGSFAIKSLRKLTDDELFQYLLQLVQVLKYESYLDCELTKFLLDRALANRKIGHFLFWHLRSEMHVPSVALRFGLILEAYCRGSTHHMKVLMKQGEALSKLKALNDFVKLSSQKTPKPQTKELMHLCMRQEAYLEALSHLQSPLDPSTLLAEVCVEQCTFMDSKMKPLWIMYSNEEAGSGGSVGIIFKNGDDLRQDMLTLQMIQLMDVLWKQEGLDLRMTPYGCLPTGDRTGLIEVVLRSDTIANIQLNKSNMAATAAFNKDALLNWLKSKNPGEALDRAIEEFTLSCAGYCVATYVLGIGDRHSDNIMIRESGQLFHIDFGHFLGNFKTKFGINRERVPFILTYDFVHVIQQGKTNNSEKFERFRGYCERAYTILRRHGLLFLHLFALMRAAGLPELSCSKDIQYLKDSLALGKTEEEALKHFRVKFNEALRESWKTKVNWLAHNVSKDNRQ
Sequence of PI3K-delta (P27986 whole entry partner, species assumed): as the sequence (P27986 whole entry partner, species assumed) above

[1] = test system: human tumor xenograft models; details: cited from earlier work
[2] = test system: acute lymphoblastic leukemia; details: in vivo; cited from earlier work
mTOR = mTOR (Homo sapiens, UniProt P42345); details: mTOR enzymes; cited from earlier work

Sequence of PI3K-gamma (P48736 whole entry, species assumed, the tested form may be a part): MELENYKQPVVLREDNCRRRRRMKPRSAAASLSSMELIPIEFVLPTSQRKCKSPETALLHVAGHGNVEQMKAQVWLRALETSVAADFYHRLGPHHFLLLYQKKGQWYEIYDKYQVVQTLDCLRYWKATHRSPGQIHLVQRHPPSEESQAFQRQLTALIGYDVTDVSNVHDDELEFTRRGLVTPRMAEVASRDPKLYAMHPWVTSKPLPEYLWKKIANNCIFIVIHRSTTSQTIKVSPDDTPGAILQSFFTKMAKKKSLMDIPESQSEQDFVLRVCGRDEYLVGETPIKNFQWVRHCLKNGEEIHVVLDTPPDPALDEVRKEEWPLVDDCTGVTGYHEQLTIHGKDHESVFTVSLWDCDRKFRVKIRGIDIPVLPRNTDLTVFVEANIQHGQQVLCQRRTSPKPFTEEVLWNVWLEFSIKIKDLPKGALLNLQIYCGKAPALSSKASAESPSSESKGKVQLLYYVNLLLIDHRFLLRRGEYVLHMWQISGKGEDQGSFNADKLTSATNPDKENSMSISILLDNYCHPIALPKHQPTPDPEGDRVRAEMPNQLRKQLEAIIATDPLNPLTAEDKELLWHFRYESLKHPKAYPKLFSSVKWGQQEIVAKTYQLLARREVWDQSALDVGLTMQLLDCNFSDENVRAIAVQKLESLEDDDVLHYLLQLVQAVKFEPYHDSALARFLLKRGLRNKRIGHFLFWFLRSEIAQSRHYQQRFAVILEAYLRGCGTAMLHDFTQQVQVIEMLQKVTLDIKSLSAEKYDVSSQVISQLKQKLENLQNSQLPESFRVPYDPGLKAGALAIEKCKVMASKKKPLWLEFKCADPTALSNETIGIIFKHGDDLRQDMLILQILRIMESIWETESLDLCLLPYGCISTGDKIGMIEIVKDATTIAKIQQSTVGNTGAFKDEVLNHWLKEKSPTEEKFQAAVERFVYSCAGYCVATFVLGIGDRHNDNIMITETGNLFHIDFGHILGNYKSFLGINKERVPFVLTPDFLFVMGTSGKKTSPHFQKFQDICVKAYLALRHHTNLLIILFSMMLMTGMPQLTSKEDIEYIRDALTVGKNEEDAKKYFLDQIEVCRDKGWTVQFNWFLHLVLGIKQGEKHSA

SMILES | pIC50 (PI3K-gamma) | pIC50 (human TOR) | pIC50 (PI3K-alpha) | pIC50 (PI3K-beta) | pIC50 (PI3K-delta) | further results
COc1ccc2[nH]c(-c3cncnc3)c(/C=C3\Oc4cc(O)cc(O)c4C3=O)c2c1 [Example 354, (2Z)-4,6-Dihydroxy-2-[(5-methoxy-2-pyrimidin-5-yl-1H-indol-3-yl)methylene]-1-benzofuran-3(2H)-one] | 7.26 | 7.74 | 8.19 | 7.36 | 7.84 | –
COc1ccc2c(c1)c(/C=C1\Oc3cc(O)ccc3C1=O)c(C1CC1)n2CCn1cccn1 [Example 355, (2Z)-2-({2-Cyclopropyl-5-methoxy-1-[2-(1H-pyrazol-1-yl)ethyl]-1H-indol-3-yl}methylene)-6-hydroxy-1-benzofuran-3(2H)-one] | 7.44 | 7.89 | 8.07 | 7.77 | 8.60 | –
COc1ccc2c(c1)c(/C=C1\Oc3cc(O)ccc3C1=O)c(C)n2CCCN1CCCC1 [Example 356, (2Z)-6-Hydroxy-2-{[5-methoxy-2-methyl-1-(3-pyrrolidin-1-ylpropyl)-1H-indol-3-yl]methylene}-1-benzofuran-3(2H)-one] | 6.39 | < 6.10 | 7.81 | 6.94 | 8.92 | –
COc1ccc2c(c1)c(/C=C1\Oc3cc(O)ccc3C1=O)c(C)n2CCCN1CCCCC1 [Example 357, (2Z)-6-Hydroxy-2-{[5-methoxy-2-methyl-1-(3-piperidin-1-ylpropyl)-1H-indol-3-yl]methylene}-1-benzofuran-3(2H)-one] | 6.49 | < 6.10 | 7.96 | 7.01 | > 9.00 | –
COc1ccc2c(c1)c(/C=C1\Oc3cc(O)ccc3C1=O)c(C)n2CCCN1CCCCCC1 [Example 358, (2Z)-2-{[1-(3-Azepan-1-ylpropyl)-5-methoxy-2-methyl-1H-indol-3-yl]methylene}-6-hydroxy-1-benzofuran-3(2H)-one] | 6.62 | < 6.10 | 8.12 | 7.02 | > 9.00 | –
COc1ccc2c(c1)c(/C=C1\Oc3cc(O)cc(F)c3C1=O)c(C)n2CCN1CCN(C)CC1 [Example 359, (2Z)-4-Fluoro-6-hydroxy-2-({5-methoxy-2-methyl-1-[2-(4-methylpiperazin-1-yl)ethyl]-1H-indol-3-yl}methylene)-1-benzofuran-3(2H)-one] | 6.63 | < 6.10 | 7.96 | 7.73 | 8.82 | –
Cn1c(=O)n(-c2ccc(C(C)(C)C#N)cc2)c2c3cc(-c4cnc5ccccc5c4)ccc3ncc21 [NVP-BEZ-235, 2-methyl-2-(4-(3-methyl-2-oxo-8-(quinolin-3-yl)-2,3-dihydro-1H-imidazo[4,5-c]quinolin-1-yl)phenyl)propanenitrile] | – | – | – | – | – | activity in human tumor xenograft models ([1]; prostrate (PC-3) and glioblastoma (U-87)): demonstrated activity
Oc1cccc(-c2nc(N3CCOCC3)c3oc4ncccc4c3n2)c1 [PI103, 3-(4-(4-morpholinyl)pyrido[3′,2′:4,5]furo[3,2-d]pyrimidin-2-yl)phenol] | – | – | – | – | – | activity in human tumor xenograft models ([1]; I.P. dosing in mice, U87MG, PC3, MDA-MB-468, MDA-MB-435, HCT 116, SKOV3, IGROV-1): demonstrated activity
CO[C@H]1C[C@@H]2CC[C@@H](C)[C@@](O)(O2)C(=O)C(=O)N2CCCC[C@H]2C(=O)O[C@H]([C@H](C)C[C@@H]2CC[C@@H](OC(=O)C(C)(CO)CO)[C@H](OC)C2)CC(=O)[C@H](C)/C=C(\C)[C@@H](O)[C@@H](OC)C(=O)[C@H](C)C[C@H](C)/C=C/C=C/C=C/1C [Torisel] | – | – | – | – | – | activity in NOS/SCID xenograft mouse model of acute lymphoblastic leukemia [2]: active
FC(F)c1nc2ccccc2n1-c1nc(N2CCOCC2)nc(N2CCOCC2)n1 [ZSTK474, 2-(2-difluoromethylbenzoimidazol-1-yl)-4,6-dimorpholino-1,3,5-triazine] | – | – | – | – | – | pIC50 (mTOR): < 5.00; tumor growth in mouse human xenograft cancer models ([1]; chronic oral administration, 400 mg/kg, A549, PC-3, WiDr): completely inhibited growth

The next lines start with results.

pIC50 (PI3K-gamma) | pIC50 (human TOR) | pIC50 (PI3K-alpha) | pIC50 (PI3K-beta) | pIC50 (PI3K-delta) | SMILES | further results
8.49 | 8.90 | 8.82 | 8.89 | 9.52 | COc1ccc2[nH]c(-c3c(C)noc3C)c(/C=C3\Oc4cc(O)cc(O)c4C3=O)c2c1 [Example 360, (2Z)-2-{[2-(3,5-Dimethylisoxazol-4-yl)-5-methoxy-1H-indol-3-yl]methylene}-4,6-dihydroxy-1-benzofuran-3(2H)-one] | –
6.48 | 6.68 | 7.98 | 8.10 | 8.82 | COc1ccc2c(c1)c(/C=C1\Oc3cc(O)ccc3C1=O)c(C1CC1)n2CCN1CCN(C)CC1 [Example 362, (2Z)-2-({2-Cyclopropyl-5-methoxy-1-[2-(4-methylpiperazin-1-yl)ethyl]-1H-indol-3-yl}methylene)-6-hydroxy-1-benzofuran-3(2H)-one] | –
5.42 | 6.89 | 5.68 | – | – | COc1ccc(-c2cccc3c2c(/C=C2\Oc4cc(O)cc(O)c4C2=O)cn3C)cc1 [Example 376, (2Z)-4,6-dihydroxy-2-{[4-(4-methoxyphenyl)-1-methyl-1H-indol-3-yl]methylene}benzofuran-3(2H)-one] | melting point: 289 to 291 °C (dec.)
5.70 | < 4.70 | < 5.00 | – | – | COc1cc(OC)c2c(c1)O/C(=C\c1c(-c3ccccc3)n(C)c3ccccc13)C2=O [Example 409, (2Z)-4,6-dimethoxy-2-[(1-methyl-2-phenyl-1H-indol-3-yl)methylene]benzofuran-3(2H)-one] | melting point: 257 to 258 °C
< 5.00 | < 4.70 | < 5.00 | – | – | COc1cc(O)c2c(c1)O/C(=C\c1c(-c3ccccc3)n(C)c3ccccc13)C2=O [Example 421, (2Z)-4-hydroxy-6-methoxy-2-[(1-methyl-2-phenyl-1H-indol-3-yl)methylene]benzofuran-3(2H)-one] | melting point: 221 to 223 °C

Source: patent US20090311217A1, “3-SUBSTITUTED-1H-INDOLE COMPOUNDS, THEIR USE AS MTOR KINASE AND PI3 KINASE INHIBITORS, AND THEIR SYNTHESES” (priority 2008, published 2009)
